This note sets out measurements from patent publication US12180193B2, “Accelerating fibrosarcoma protein degrading compounds and associated methods of use” (Arvinas Operations, Inc., priority 2020, dated 2024).

For orientation: DC50 means the concentration at which degradation of the target reaches its halfway point. The term Dmax denotes the largest share of the target that was removed. Low readings indicate a partial loss of target, high ones a fuller loss of target.

A value given as a limit tells only on which side of the number the result lay.

One experiment has as its target T1, BRAF V600E (Homo sapiens, UniProt P15056, V600E).
T1 construct: expressed in transfected cells
Put plainly: Cellular assay of target protein degradation, T-Rex 293 cells stably transfected with HA-BRAF_V600E (HA immunofluorescence, high content imaging). It counts as cell-based. Conditions: T-Rex 293 HA-BRAF V600E; for DC50: half maximal degradation, read-out: BRaf V600E DC50; for Dmax: maximum degradation observed. Summed up: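 Read-out is anti-HA immunofluorescence quantified by high-content imaging, giving half-maximal degradation concentration (DC50) and maximum degradation (Dmax, percent of control). Cells expressed the construct under 1 ng/mL doxycycline and received compound (1 μM to 0.1 nM final, 0.1% DMSO) for 24 h at 37 °C.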

For another experiment, the target named is T2, BRAF G466V (Homo sapiens, UniProt P15056, G466V).
T2 construct: expressed in transfected cells
In words: Cellular assay of target protein degradation, T-Rex 293 cells stably transfected with HA-BRAF G466V (HA immunofluorescence, high content imaging). The format is cell-based. Conditions: T-Rex 293 HA-BRAF G466V; for DC50: half maximal degradation, read-out: BRaf G466V DC50; for Dmax: maximum degradation observed. Summed up:
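First, stably transfected T-Rex 293 cells were plated with 0.75 ng/mL doxycycline and grown for 24 hours. Next, compound (final 30 nM to 3 pM, 0.1% DMSO) was added for another 24 hours at 37° C. Finally, cells were fixed, stained for HA and imaged.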

T1 sequence (P15056 whole entry V600E): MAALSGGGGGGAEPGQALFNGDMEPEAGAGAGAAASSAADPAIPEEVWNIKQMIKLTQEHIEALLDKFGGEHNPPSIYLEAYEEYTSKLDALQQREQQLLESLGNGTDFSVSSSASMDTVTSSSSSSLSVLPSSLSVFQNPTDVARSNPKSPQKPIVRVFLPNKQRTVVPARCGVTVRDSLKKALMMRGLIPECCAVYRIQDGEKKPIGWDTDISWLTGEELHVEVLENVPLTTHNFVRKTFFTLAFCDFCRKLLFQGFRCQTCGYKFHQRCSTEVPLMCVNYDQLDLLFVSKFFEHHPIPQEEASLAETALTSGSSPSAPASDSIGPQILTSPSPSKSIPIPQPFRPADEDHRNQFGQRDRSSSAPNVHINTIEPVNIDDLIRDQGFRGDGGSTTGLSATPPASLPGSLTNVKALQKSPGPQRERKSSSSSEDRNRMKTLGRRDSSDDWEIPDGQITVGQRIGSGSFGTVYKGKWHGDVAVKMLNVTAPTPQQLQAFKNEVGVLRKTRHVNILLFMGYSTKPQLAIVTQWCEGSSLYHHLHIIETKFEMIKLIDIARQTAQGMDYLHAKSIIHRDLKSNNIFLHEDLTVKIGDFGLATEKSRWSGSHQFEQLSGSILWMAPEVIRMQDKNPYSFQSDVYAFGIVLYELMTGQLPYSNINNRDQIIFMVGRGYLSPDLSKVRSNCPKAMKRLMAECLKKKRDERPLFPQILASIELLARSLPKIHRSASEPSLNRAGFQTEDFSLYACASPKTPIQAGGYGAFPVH
T2 sequence (P15056 whole entry G466V): as the sequence (P15056 whole entry V600E) above, with G466V, E600V counted along it

`COc1cc(N2CC(CN3CCN(c4ccc(-c5cnc6[nH]cc(C(=O)c7c(F)ccc(NS(=O)(=O)N8CC[C@@H](F)C8)c7F)c6c5)cc4)CC3)C2)cc2c1C(=O)N(C1CCC(=O)NC1=O)C2` (stereo partly drawn) [Compound 70, (3R)-N-[3-(5-{4-[4-({1-[2-(2,6-dioxopiperidin-3-yl)-7-methoxy-1-oxo-2,3-dihydro-1H-isoindol-5-yl]azetidin-3-yl}methyl)piperazin-1-yl]phenyl}-1H-pyrrolo[2,3-b]pyridine-3-carbonyl)-2,4-difluorophenyl]-3-fluoropyrrolidine-1-sulfonamide]: at BRAF V600E, the 50% degradation concentration (DC50) is 5 to 50 nM and the greatest degradation seen (Dmax) lay in the range of 35 to 70%. Also, at BRAF G466V, the half-maximal degradation concentration (DC50) was less than 1 nM and the maximal degradation (Dmax) lay in the range of 35 to 70%.

Take `O=C1CC[C@H](N2Cc3cc([C@@H](O)CCN4CCC(c5ccc(-c6cnc7[nH]cc(C(=O)c8c(F)ccc(NS(=O)(=O)N9CC[C@@H](F)C9)c8F)c7c6)cc5)CC4)ccc3C2=O)C(=O)N1` [Compound 71, (3R)-N-{3-[5-(4-{1-[(3S)-3-{2-[(3S)-2,6-dioxopiperidin-3-yl]-1-oxo-2,3-dihydro-1H-isoindol-5-yl}-3-hydroxypropyl]piperidin-4-yl}phenyl)-1H-pyrrolo[2,3-b]pyridine-3-carbonyl]-2,4-difluorophenyl}-3-fluoropyrrolidine-1-sulfonamide]: at BRAF V600E, the DC50 lay within 5 to 50 nM and the maximal degradation (Dmax) lay in the range of 35 to 70%. Besides, on BRAF G466V, the 50% degradation concentration (DC50) lay in the range of 1 to 10 nM and the Dmax is greater than 70%.

As for `O=C1CC[C@@H](N2Cc3cc([C@@H](O)CCN4CCC(c5ccc(-c6cnc7[nH]cc(C(=O)c8c(F)ccc(NS(=O)(=O)N9CC[C@@H](F)C9)c8F)c7c6)cc5)CC4)ccc3C2=O)C(=O)N1` [Compound 72, (3R)-N-{3-[5-(4-{1-[(3S)-3-{2-[(3R)-2,6-dioxopiperidin-3-yl]-1-oxo-2,3-dihydro-1H-isoindol-5-yl}-3-hydroxypropyl]piperidin-4-yl}phenyl)-1H-pyrrolo[2,3-b]pyridine-3-carbonyl]-2,4-difluorophenyl}-3-fluoropyrrolidine-1-sulfonamide], the values for the half-maximal degradation concentration (DC50) on BRAF V600E and at BRAF G466V were 5 to 50 nM and 1 to 10 nM, respectively. The greatest degradation seen (Dmax) at BRAF V600E is less than 35%; on BRAF G466V, 35 to 70%.

As to `O=C1CC[C@@H](N2Cc3cc(C[C@@H](O)CN4CCN(c5ccc(-c6cnc7[nH]cc(C(=O)c8c(F)ccc(NS(=O)(=O)N9CC[C@@H](F)C9)c8F)c7c6)cc5)CC4)ccc3C2=O)C(=O)N1` [Compound 73, (3R)-N-{3-[5-(4-{4-[(2R)-3-{2-[(3R)-2,6-dioxopiperidin-3-yl]-1-oxo-2,3-dihydro-1H-isoindol-5-yl}-2-hydroxypropyl]piperazin-1-yl}phenyl)-1H-pyrrolo[2,3-b]pyridine-3-carbonyl]-2,4-difluorophenyl}-3-fluoropyrrolidine-1-sulfonamide], at BRAF V600E, the DC50 fell in the range of 5 to 50 nM and the greatest degradation seen (Dmax) is 35 to 70%. On BRAF G466V, the DC50 lay within 1 to 10 nM and the Dmax was greater than 70%.

Turning to `O=C1CC[C@H](N2Cc3cc(C[C@H](O)CN4CCN(c5ccc(-c6cnc7[nH]cc(C(=O)c8c(F)ccc(NS(=O)(=O)N9CC[C@@H](F)C9)c8F)c7c6)cc5)CC4)ccc3C2=O)C(=O)N1` [Compound 74], on BRAF V600E, the DC50 was in the range of 5 to 50 nM and the Dmax lay within 35 to 70%. At BRAF G466V, the half-maximal degradation concentration (DC50) lay in the range of 1 to 10 nM and the Dmax was greater than 70%.

For the molecule `O=C1CC[C@@H](N2Cc3cc(C[C@H](O)CN4CCN(c5ccc(-c6cnc7[nH]cc(C(=O)c8c(F)ccc(NS(=O)(=O)N9CC[C@@H](F)C9)c8F)c7c6)cc5)CC4)ccc3C2=O)C(=O)N1` [Compound 75, (3R)-N-{3-[5-(4-{4-[(2S)-3-{2-[(3R)-2,6-dioxopiperidin-3-yl]-1-oxo-2,3-dihydro-1H-isoindol-5-yl}-2-hydroxypropyl]piperazin-1-yl}phenyl)-1H-pyrrolo[2,3-b]pyridine-3-carbonyl]-2,4-difluorophenyl}-3-fluoropyrrolidine-1-sulfonamide], the results for the 50% degradation concentration (DC50) on BRAF V600E and on BRAF G466V were less than 5 nM and 1 to 10 nM, respectively. Moreover, the values for the greatest degradation seen (Dmax) at BRAF V600E and at BRAF G466V were 35 to 70% and greater than 70%, respectively.

In the case of `O=C1CC[C@H](N2Cc3cc(CN4C[C@@H]5CN(c6ccc(-c7cnc8[nH]cc(C(=O)c9c(F)ccc(NS(=O)(=O)N%10CC[C@@H](F)C%10)c9F)c8c7)cc6)C[C@@H]5C4)ccc3C2=O)C(=O)N1` [Compound 76, (3R)-N-[3-(5-{4-[(3aR,6aS)-5-({2-[(3S)-2,6-dioxopiperidin-3-yl]-1-oxo-2,3-dihydro-1H-isoindol-5-yl}methyl)-octahydropyrrolo[3,4-c]pyrrol-2-yl]phenyl}-1H-pyrrolo[2,3-b]pyridine-3-carbonyl)-2,4-difluorophenyl]-3-fluoropyrrolidine-1-sulfonamide], at BRAF V600E, the DC50 was in the range of 5 to 50 nM and the Dmax was 35 to 70%. Moreover, the DC50 on BRAF G466V was greater than 30 nM.

In the case of `O=C1CC[C@@H](N2Cc3cc(CN4C[C@@H]5CN(c6ccc(-c7cnc8[nH]cc(C(=O)c9c(F)ccc(NS(=O)(=O)N%10CC[C@@H](F)C%10)c9F)c8c7)cc6)C[C@@H]5C4)ccc3C2=O)C(=O)N1` [Compound 77, (3R)-N-[3-(5-{4-[(3aR,6aS)-5-({2-[(3R)-2,6-dioxopiperidin-3-yl]-1-oxo-2,3-dihydro-1H-isoindol-5-yl}methyl)-octahydropyrrolo[3,4-c]pyrrol-2-yl]phenyl}-1H-pyrrolo[2,3-b]pyridine-3-carbonyl)-2,4-difluorophenyl]-3-fluoropyrrolidine-1-sulfonamide], the 50% degradation concentration (DC50) on BRAF V600E was 5 to 50 nM; on BRAF G466V, greater than 30 nM. Besides, the Dmax on BRAF V600E fell in the range of 35 to 70%.

On to `O=C1CCC(N2Cc3cc(CN4CCN(c5ccc(-c6cnc7[nH]cc(C(=O)c8c(F)ccc(NS(=O)(=O)N9CC[C@@H](F)C9)c8F)c7c6)cc5)C[C@@H]4CO)ccc3C2=O)C(=O)N1` (stereo partly drawn) [Compound 78, (3R)-N-[3-(5-{4-[(3R)-4-{[2-(2,6-dioxopiperidin-3-yl)-1-oxo-2,3-dihydro-1H-isoindol-5-yl]methyl}-3-(hydroxymethyl)piperazin-1-yl]phenyl}-1H-pyrrolo [2,3-b]pyridine-3-carbonyl)-2,4-difluorophenyl]-3-fluoropyrrolidine-1-sulfonamide], for which the DC50 at BRAF V600E is greater than 500 nM; on BRAF G466V, greater than 30 nM. Also, the Dmax at BRAF V600E was greater than 70%.

Consider `COc1cc(N2CC(N3CCN(c4ccc(-c5cnc6[nH]cc(C(=O)c7c(F)ccc(NS(=O)(=O)N8CC[C@@H](F)C8)c7F)c6c5)cc4)CC3)C2)cc2c1C(=O)N(C1CCC(=O)NC1=O)C2` (stereo partly drawn) [Compound 79, (3R)-N-(3-{5-[4-(4-{1-[2-(2,6-dioxopiperidin-3-yl)-7-methoxy-1-oxo-2,3-dihydro-1H-isoindol-5-yl]azetidin-3-yl}piperazin-1-yl)phenyl]-1H-pyrrolo[2,3-b]pyridine-3-carbonyl}-2,4-difluorophenyl)-3-fluoropyrrolidine-1-sulfonamide], for which, at BRAF V600E, the DC50 lay within 5 to 50 nM and the maximal degradation (Dmax) lay within 35 to 70%. Moreover, the DC50 on BRAF G466V is greater than 30 nM.

Take `O=C1CC[C@H](N2Cc3cc(OCCCN4CC5(C4)CN(c4ccc(-c6cnc7[nH]cc(C(=O)c8c(F)ccc(NS(=O)(=O)N9CC[C@@H](F)C9)c8F)c7c6)cc4)C5)ccc3C2=O)C(=O)N1` [Compound 80, (3R)-N-{3-[5-(4-{6-[3-({2-[(3S)-2,6-dioxopiperidin-3-yl]-1-oxo-2,3-dihydro-1H-isoindol-5-yl}oxy)propyl]-2,6-diazaspiro[3.3]heptan-2-yl}phenyl)-1H-pyrrolo[2,3-b]pyridine-3-carbonyl]-2,4-difluorophenyl}-3-fluoropyrrolidine-1-sulfonamide]: on BRAF V600E, the 50% degradation concentration (DC50) is less than 5 nM and the maximal degradation (Dmax) lay within 35 to 70%. Besides, at BRAF G466V, the 50% degradation concentration (DC50) lay in the range of 1 to 10 nM and the Dmax is greater than 70%.

`O=C1CC[C@@H](N2Cc3cc(OCCCN4CC5(C4)CN(c4ccc(-c6cnc7[nH]cc(C(=O)c8c(F)ccc(NS(=O)(=O)N9CC[C@@H](F)C9)c8F)c7c6)cc4)C5)ccc3C2=O)C(=O)N1` [Compound 81, (3R)-N-{3-[5-(4-{6-[3-({2-[(3R)-2,6-dioxopiperidin-3-yl]-1-oxo-2,3-dihydro-1H-isoindol-5-yl}oxy)propyl]-2,6-diazaspiro[3.3]heptan-2-yl}phenyl)-1H-pyrrolo[2,3-b]pyridine-3-carbonyl]-2,4-difluorophenyl}-3-fluoropyrrolidine-1-sulfonamide]: on BRAF V600E, the DC50 lay in the range of 5 to 50 nM and the Dmax was in the range of 35 to 70%. Further, on BRAF G466V, the DC50 fell in the range of 1 to 10 nM and the greatest degradation seen (Dmax) was greater than 70%.

As for `O=C1CC[C@H](N2Cc3cc(C[C@@H](O)CN4CCN(c5ccc(-c6cnc7[nH]cc(C(=O)c8c(F)ccc(NS(=O)(=O)N9CC[C@@H](F)C9)c8F)c7c6)cc5)CC4)ccc3C2=O)C(=O)N1` [Compound 82, (3R)-N-{3-[5-(4-{4-[(2R)-3-{2-[(3S)-2,6-dioxopiperidin-3-yl]-1-oxo-2,3-dihydro-1H-isoindol-5-yl}-2-hydroxypropyl]piperazin-1-yl}phenyl)-1H-pyrrolo[2,3-b]pyridine-3-carbonyl]-2,4-difluorophenyl}-3-fluoropyrrolidine-1-sulfonamide], on BRAF V600E, the 50% degradation concentration (DC50) fell in the range of 5 to 50 nM and the Dmax lay within 35 to 70%. In addition, the half-maximal degradation concentration (DC50) on BRAF G466V was greater than 30 nM.
